Measurements as given in patent US20250186321A1, “FORMULATION USING AMINO ACID AND CARBOXYLIC ACID, ORGANIC SALT, AND COMPOSITION COMPRISING SAME AND USE THEREOF” (MIYOSHI OIL & FAT CO., LTD., priority 2021, published 2025).

Experiment: Appearance of formulation (state at 25° C.)
Format: physicochemical
Experimental: Formulations 1 to 427 shown in Tables 1A to 1D were prepared by the above-described method using the components (A) and (B) at the compounding molar ratios shown in the tables, and their states at 25° C. were observed.

[1] = 25° C., components (A) and (B) at the compounding molar ratio shown
[2] = Tables 1C-1 to 1D, compounding molar ratio (Component (A):Component (B)) 1:1

Compound | state at 25° C. [1] | state at 25° C. [2]
N[C@@H](CO)C(=O)O.O=C(O)/C=C/C(=O)O [Formulation 248] | Solid | –
CC(C)C[C@H](N)C(=O)O.O=C(O)C(O)C(O)C(=O)O (stereo not shown) [Formulation 217] | Solid | –
N[C@@H](Cc1c[nH]cn1)C(=O)O.O=C(O)CCCCC(=O)O [Formulation 95] | Solid | –
NCCCC(=O)O.N[C@@H](CCC(=O)O)C(=O)O [Formulation 179] | Solid | –
N=C(N)NCCC[C@H](N)C(=O)O.O=CO [Formulation 43] | Solid | –
CCC(=O)O.N[C@@H](CS)C(=O)O [Formulation 308] | – | Solid
N[C@@H](CCC(=O)O)C(=O)O.N[C@@H](CCC(=O)O)C(=O)O [Formulation 420] | – | Solid
CCC(=O)O.CCC(=O)O.N=C(N)NCCC[C@H](N)C(=O)O [Formulation 66] | Solid | –
CSCC[C@H](N)C(=O)O.O=C(O)c1ccccc1 [Formulation 337] | – | Solid
N[C@@H](Cc1ccccc1)C(=O)O.O=C(O)C(O)C(O)C(=O)O [Formulation 373] | – | Solid
C[C@@H](O)[C@H](N)C(=O)O.O=C(O)CCC(=O)O [Formulation 263] | Solid | –
C[C@H](N)C(=O)O.O=C(O)c1ccccc1 [Formulation 164] | Solid | –
N[C@@H](Cc1c[nH]c2ccccc12)C(=O)O.O=C(O)C[C@H](O)C(=O)O [Formulation 388] | – | Solid
CCC(=O)O.N[C@@H](Cc1c[nH]c2ccccc12)C(=O)O [Formulation 379] | – | Solid
CCCC(=O)O.N[C@@H](CO)C(=O)O [Formulation 242] | Solid | –
CC(C)[C@H](N)C(=O)O.CCCCCC(=O)O [Formulation 190] | Solid | –
CC[C@H](C)[C@H](N)C(=O)O.O=C1O[C@H]([C@@H](O)CO)C(O)=C1O [Formulation 236] | Solid | –
CC(O)C(=O)O.CC(O)C(=O)O.NCCCC[C@H](N)C(=O)O [Formulation 31] | Solid | –
CC(=O)O.C[C@H](N)C(=O)O [Formulation 148] | Solid | –
CC(=O)O.N[C@@H](Cc1ccccc1)C(=O)O [Formulation 361] | – | Solid
CSCC[C@H](N)C(=O)O.O=C(O)CCCCC(=O)O [Formulation 330] | – | Solid
CC(=O)O.CC(C)C[C@H](N)C(=O)O [Formulation 205] | Solid | –

Compound | state at 25° C. [1] | state at 25° C. [2]
N[C@@H](Cc1c[nH]cn1)C(=O)O.O=C1O[C@H]([C@@H](O)CO)C(O)=C1O.O=C1O[C@H]([C@@H](O)CO)C(O)=C1O [Formulation 125] | Solid | –
CCC(=O)O.CCC(=O)O.NCCCC[C@H](N)C(=O)O [Formulation 24] | Solid | –
CCCCC/C=C\C/C=C\CCCCCCCC(=O)O.CCCCC/C=C\C/C=C\CCCCCCCC(=O)O.N[C@@H](Cc1cnc[nH]1)C(=O)O [Formulation 113] | Solid | –
CCC(=O)O.O=C(O)[C@@H]1CCCN1 [Formulation 342] | – | Solid
NCC(=O)O.O=C(O)/C=C/C(=O)O [Formulation 140] | Solid | –
C[C@@H](O)[C@H](N)C(=O)O.O=C(O)CC(O)(CC(=O)O)C(=O)O [Formulation 267] | Solid | –
N=C(N)NCCC[C@H](N)C(=O)O.O=C(O)CCC(=O)O.O=C(O)CCC(=O)O [Formulation 75] | Solid | –
O=C(O)C(O)C(O)C(=O)O.O=C(O)[C@@H]1CCCN1 (stereo not shown) [Formulation 356] | – | Solid
CCCCCC(=O)O.N[C@@H](CC(=O)O)C(=O)O [Formulation 397] | – | Solid
CC(=O)O.N=C(N)NCCC[C@H](N)C(=O)O [Formulation 44] | Solid | –
N[C@@H](CCC(=O)O)C(=O)O.O=CO [Formulation 411] | – | Solid
NCC(=O)O.O=C(O)[C@H](O)[C@@H](O)[C@H](O)[C@H](O)CO [Formulation 135] | Solid | –
N[C@@H](CCC(=O)O)C(=O)O.O=C(O)C(O)C(O)C(=O)O [Formulation 424] | – | Solid
CCCC(=O)O.N[C@@H](CS)C(=O)O [Formulation 310] | – | Solid
CC(=O)O.N[C@@H](CO)C(=O)O [Formulation 239] | Solid | –
CCCCCC(=O)O.C[C@@H](O)[C@H](N)C(=O)O [Formulation 258] | Solid | –
N[C@@H](Cc1c[nH]cn1)C(=O)O.O=CO.O=CO [Formulation 106] | Solid | –
CC(=O)O.NCCCC[C@H](N)C(=O)O [Formulation 2] | Solid | –
CSCC[C@H](N)C(=O)O.O=C1O[C@H]([C@H](O)CO)C(O)=C1O [Formulation 339] | – | Solid
CC(C)C[C@H](N)C(=O)O.O=C(O)CCC(=O)O [Formulation 212] | Solid | –
O=C(O)CCC(=O)O.O=C(O)[C@@H]1CCCN1 [Formulation 351] | – | Solid
CC(O)C(=O)O.C[C@@H](O)[C@H](N)C(=O)O [Formulation 261] | Solid | –

Compound | state at 25° C. [1] | state at 25° C. [2]
C[C@H](N)C(=O)O.O=C(O)C[C@H](O)C(=O)O [Formulation 161] | Solid | –
NCCCC[C@H](N)C(=O)O.O=CO.O=CO [Formulation 22] | Solid | –
NCC(=O)O.O=C(O)c1ccccc1 [Formulation 144] | Solid | –
CCC(=O)O.NCCCC(=O)O [Formulation 169] | Solid | –
N[C@@H](CS)C(=O)O.O=C(O)C[C@H](O)C(=O)O [Formulation 317] | – | Solid
N[C@@H](CO)C(=O)O.O=C(O)c1ccccc1 [Formulation 252] | Solid | –
C[C@H](N)C(=O)O.O=C(O)CC(O)(CC(=O)O)C(=O)O [Formulation 162] | Solid | –
N=C(N)NCCC[C@H](N)C(=O)O.O=C(O)/C=C/c1ccccc1 [Formulation 61] | Solid | –
CCCC(=O)O.N[C@@H](CCC(=O)O)C(=O)O [Formulation 415] | – | Solid
CCCC(=O)O.NCC(=O)O [Formulation 131] | Solid | –
CCCC(=O)O.C[C@H](N)C(=O)O [Formulation 151] | Solid | –
CC[C@H](C)[C@H](N)C(=O)O.O=C(O)C[C@H](O)C(=O)O [Formulation 232] | Solid | –
CC(=O)O.NCCCC(=O)O [Formulation 168] | Solid | –
C[C@@H](O)[C@H](N)C(=O)O.O=C1O[C@H]([C@@H](O)CO)C(O)=C1O [Formulation 270] | Solid | –
NCC(=O)O.O=C1O[C@H]([C@H](O)CO)C(O)=C1O [Formulation 146] | Solid | –
NC(CCC(=O)O)C(=O)O.O=C1OC(C(O)CO)C(O)=C1O (stereo not shown) [Formulation 427] | – | Solid
N[C@@H](CCC(=O)O)C(=O)O.N[C@@H](CO)C(=O)O [Formulation 247] | Solid | –
N[C@@H](Cc1c[nH]cn1)C(=O)O.O=C(O)C(O)C(O)C(=O)O.O=C(O)C(O)C(O)C(=O)O [Formulation 122] | Solid | –
CCCCCC(=O)O.CC[C@H](C)[C@H](N)C(=O)O [Formulation 224] | Solid | –
CC(=O)O.CC[C@H](C)[C@H](N)C(=O)O [Formulation 222] | Solid | –
NCCCC[C@H](N)C(=O)O.O=C(O)/C=C/C(=O)O [Formulation 14] | Liquid | –
N[C@@H](CCC(=O)O)C(=O)O.O=C(O)CC(O)(CC(=O)O)C(=O)O [Formulation 423] | – | Solid

Compound | state at 25° C. [1] | state at 25° C. [2]
N[C@@H](CC(=O)O)C(=O)O.O=C(O)c1ccccc1 [Formulation 408] | – | Solid
CCC(=O)O.NCCCC[C@H](N)C(=O)O [Formulation 3] | Solid | –
N[C@@H](CC(=O)O)C(=O)O.O=C(O)CC(O)(CC(=O)O)C(=O)O [Formulation 406] | – | Solid
CCCCCCCC/C=C\CCCCCCCC(=O)O.NCC(=O)O [Formulation 133] | Solid | –
N=C(N)NCCC[C@H](N)C(=O)O.O=C(O)/C=C/C(=O)O [Formulation 56] | Solid | –
N[C@@H](Cc1c[nH]cn1)C(=O)O.O=C(O)C(O)C(O)C(=O)O [Formulation 101] | Solid | –
N[C@@H](Cc1c[nH]c2ccccc12)C(=O)O.O=C(O)c1ccccc1 [Formulation 391] | – | Solid
N[C@@H](CCC(=O)O)C(=O)O.O=C(O)C(O)C(O)C(O)C(O)CO (stereo not shown) [Formulation 416] | – | Solid
CC(C)C[C@H](N)C(=O)O.O=C(O)c1ccccc1 [Formulation 218] | Solid | –
NCCCC(=O)O.O=C(O)c1ccccc1 [Formulation 184] | Solid | –
N[C@@H](Cc1c[nH]c2ccccc12)C(=O)O.O=C(O)CCCCC(=O)O [Formulation 384] | – | Solid
NCCCCC(N)C(=O)O.O=C(O)C=Cc1ccccc1.O=C(O)C=Cc1ccccc1 [Formulation 40] | Solid | –
CC(C)C[C@H](N)C(=O)O.N[C@@H](CCC(=O)O)C(=O)O [Formulation 213] | Solid | –
CCCCCC(=O)O.N[C@@H](Cc1c[nH]c2ccccc12)C(=O)O [Formulation 380] | – | Solid
C[C@H](N)C(=O)O.O=C1O[C@H]([C@@H](O)CO)C(O)=C1O [Formulation 165] | Solid | –
CC(C)C[C@H](N)C(=O)O.CCC(=O)O [Formulation 206] | Solid | –
N=C(N)NCCCC(N)C(=O)O.O=CO.O=CO (stereo not shown) [Formulation 64] | Solid | –
CSCC[C@H](N)C(=O)O.O=C(O)C[C@H](O)C(=O)O [Formulation 334] | – | Solid
NCC(=O)O.O=C(O)C[C@H](O)C(=O)O [Formulation 141] | Solid | –
